A short description of data set [1]: Thioflavin T (ThT) assay for physical stability (fibrillation). The format is physicochemical. The note with it: 3 mg/ml, 100 mM acetate pH 4.5 with m-cresol, 37° C. shaking. The source says: Low physical stability of a peptide solution may lead to amyloid fibril formation, which is observed as well-ordered, thread-like macromolecular structures in the sample, which eventually may lead to gel formation. Thioflavin T (ThT) is widely used to visualize and quantify the presence of misfolded protein aggregates. [Biancalana et al. (2010) Biochimica et Biophysica Acta. 1804 (7): 1405-1412]. […] Enzymol. 309, 274-284]. The time course for fibril formation often follows the characteristic shape of a sigmoidal curve and can be separated into three regions: a lag phase, a fast growth phase, and a plateau phase.
The typical fibril formation process starts with the lag phase in which the amount of partially folded peptide turned into fibrils is not significant enough to be detected. The lag-time corresponds to the time the critical mass of the nucleus is built. Afterwards, a drastic elongation phase follows and fibril concentration increases rapidly.
Investigations were carried out to determine fibrillation tendencies under stress conditions by shaking at 37° C. within Fluoroskan Ascent FL.
For the tests in Fluoroskan Ascent FL, 200 μL sample were placed into a 96 well mictrotiter plate PS, flat bottom, Greiner Fluotrac No. 655076. Plates were sealed with Scotch Tape (Quiagen). Samples were stressed by continuous cycles of 10 s shaking at 960 rpm and 50 s rest period at 37° C. The kinetic was monitored by measuring fluorescence intensity every 20 minutes.
Peptides were diluted in a buffer system to a final concentration of 3 mg/ml. 20 μL of a 10.1 mM ThT solution in H2O were added to 2 mL of peptide solution to receive a final concentration of 100 μM ThT. For each sample eight replicates were tested.
Tht buffer system A) 100 mM Acetate pH 4.5 including m-cresol (100 mM Natriumacetat trihydrat, pH adjustment using 2N CH3COOH, 2.7 mg/mL m-cresol) Tht buffer system B) 100 mM citrate buffer pH 6.0
Lag time in hours in Thioflavin T (ThT) assay of peptide samples was determined in ThT buffer system A as described in Methods.

For a further data set, the target named is T1, human GIP receptor (Homo sapiens, UniProt P48546).
T1 construct: expressed in transfected cells; host or cells: HEK-293
T1 sequence (P48546 22-466): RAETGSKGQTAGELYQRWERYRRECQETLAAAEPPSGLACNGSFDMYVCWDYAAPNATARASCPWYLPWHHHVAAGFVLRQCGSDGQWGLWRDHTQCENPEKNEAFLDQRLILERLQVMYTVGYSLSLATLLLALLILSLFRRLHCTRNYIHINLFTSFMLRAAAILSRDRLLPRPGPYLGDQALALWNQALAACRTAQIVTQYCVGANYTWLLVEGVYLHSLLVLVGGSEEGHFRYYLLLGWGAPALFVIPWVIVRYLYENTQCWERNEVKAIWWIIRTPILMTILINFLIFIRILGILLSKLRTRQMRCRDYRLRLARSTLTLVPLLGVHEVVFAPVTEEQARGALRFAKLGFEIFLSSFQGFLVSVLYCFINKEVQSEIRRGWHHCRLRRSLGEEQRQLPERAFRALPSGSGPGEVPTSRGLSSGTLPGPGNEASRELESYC
The data set is described as follows: cAMP response (HTRF) of HEK-293 cells stably expressing human GIP receptor. The format is cell-based. Particulars: Table 8; read-out: EC50 hGIP R. As to the method: Agonism of compounds for the receptors was determined by functional assays measuring cAMP response of HEK-293 cell lines stably expressing human GLP-1, GIP or glucagon receptor.
cAMP content of cells was determined using a kit from Cisbio Corp. (cat. no. 62AM4PEJ) based on HTRF (Homogenous Time Resolved Fluorescence). For preparation, cells were split into T175 culture flasks and grown overnight to near confluency in medium (DMEM/10% FBS). Medium was then removed and cells washed with PBS lacking calcium and magnesium, followed by proteinase treatment with accutase (Sigma-Aldrich cat. no. A6964). Detached cells were washed and resuspended in assay buffer (1×HBSS; 20 mM HEPES, 0.1% BSA, 2 mM IBMX) and cellular density determined. They were then diluted to 400000 cells/ml and 25 μl-aliquots dispensed into the wells of 96-well plates. For measurement, 25 μl of test compound in assay buffer was added to the wells, followed by incubation for 30 minutes at room temperature. After addition of HTRF reagents diluted in lysis buffer (kit components), the plates were incubated for 1 hr, followed by measurement of the fluorescence ratio at 665/616 nm. In vitro potency of agonists was quantified by determining the concentrations that caused 50% activation of maximal response (EC50).
Potencies of peptidic compounds at the GLP-1, glucagon and GIP receptors were determined by exposing cells expressing human glucagon receptor (hGlucagon R), human GIP receptor (hGIP-R) or human GLP-1 receptor (hGLP-1 R) to the listed compounds at increasing concentrations and measuring the formed cAMP as described in Methods.
For orientation: Time-resolved FRET reads energy transfer from a long-lived donor to a nearby acceptor.

As for `CCCCCCCCCCCCCCCC(=O)N[C@@H](CCC(=O)NCCCC[C@H](NC(=O)[C@H](CC(C)C)NC(=O)[C@H](CCCCN)NC(=O)[C@H](CO)NC(=O)[C@H](CC(C)C)NC(=O)[C@H](CC(=O)O)NC(=O)[C@H](CO)NC(=O)[C@@H](NC(=O)[C@H](Cc1ccccc1)NC(=O)[C@@H](NC(=O)CNC(=O)[C@H](Cc1c[nH]cn1)NC(=O)C(C)(C)NC(=O)[C@@H](N)Cc1c[nH]cn1)[C@@H](C)O)[C@@H](C)O)C(=O)N[C@@H](CCC(=O)O)C(=O)N[C@@H](CCC(=O)O)C(=O)N[C@@H](CCC(N)=O)C(=O)N[C@@H](CCCNC(=N)N)C(=O)N[C@@H](CCC(N)=O)C(=O)N[C@@H](CCCCN)C(=O)N[C@@H](CCC(=O)O)C(=O)N[C@@H](Cc1ccccc1)C(=O)N[C@H](C(=O)N[C@@H](CCC(=O)O)C(=O)N[C@@H](Cc1c[nH]c2ccccc12)C(=O)N[C@@H](CC(C)C)C(=O)N[C@@H](CCCCN)C(=O)N[C@@H](C)C(=O)NCC(=O)NCC(=O)N1CCC[C@H]1C(=O)N1CCC[C@H]1C(=O)N[C@@H](CO)C(=O)NC(C)(C)C(=O)N[C@@H](CCCCN)C(=O)N1CCC[C@H]1C(=O)N1CCC[C@H]1C(=O)N1CCC[C@H]1C(=O)N[C@@H](CCCCN)C(N)=O)[C@@H](C)CC)C(=O)O` [SEQ ID NO: 20, H-Aib-H-G-T-F-T-S-D-L-S-K-L-K[gGlu-Palm]-E-E-Q-R-Q-K-E-F-I-E-W-L-K-A-G-G-P-P-S-Aib-K-P-P-P-K-NH2], the “Lag time before increase” value in data set [1] is listed as above 45 h. Also, on human GIP receptor, the concentration giving a half-maximal response (EC50) is 1.9 pM.

The term EC50 denotes the concentration at which the effect is half-maximal.

The values are drawn from patent US10538567B2, “Compounds as peptidic trigonal GLP1/glucagon/GIP receptor agonists” (priority 2016, dated 2020).
